From patent US8168651B2, “Protein kinase modulators” (Cylene Pharmaceuticals, Inc., priority 2008, dated 2012)
Where two headings read alike, the source gives them in different places.

Legend:
recombinant human PIM1 = recombinant human PIM1 (Homo sapiens (Human), UniProt P11309); test: PIM-1 kinase activity in cell-free in vitro assay; type: biochemical; conditions: for inhibition at 0.5 µM: 500 nM compound, read-out: PIM-1: % inh 500 nM
[1] = system: HCT-116 human colorectal carcinoma cells; test: Cell-proliferation assay using Alamar Blue dye; type: cell-based; conditions: Homo sapiens, read-out: HCT-116 (uM), cell proliferation modulatory activity;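 note: cells exposed to compound for about 4 days, then Alamar Blue added and dye fluorescence read after about 4 h, compared with medium-only control wells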
[2] = HCT-116, HCT-116, second column

Chain of recombinant human PIM1 (P11309 whole entry): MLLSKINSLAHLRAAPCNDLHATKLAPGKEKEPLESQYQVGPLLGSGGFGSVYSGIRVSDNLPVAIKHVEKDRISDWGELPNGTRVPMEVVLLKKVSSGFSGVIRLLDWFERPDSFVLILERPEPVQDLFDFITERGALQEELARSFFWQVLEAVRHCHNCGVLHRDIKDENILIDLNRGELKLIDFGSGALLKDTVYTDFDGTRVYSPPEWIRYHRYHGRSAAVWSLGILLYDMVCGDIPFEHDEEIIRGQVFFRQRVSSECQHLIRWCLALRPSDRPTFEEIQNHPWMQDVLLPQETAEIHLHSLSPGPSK

O=C(NCCCO)c1ccc2c(c1)nc(NCCCO)c1ccsc12
inhibition at 0.5 µM (recombinant human PIM1; cell-free): -24.7% | IC50 ([1]; HCT-116, HCT-116, first column): 10 µM

CN(C)CCNc1nc2cc(C#N)ccc2c2ccccc12
inhibition at 0.5 µM (recombinant human PIM1; cell-free): -63.6% | IC50 ([1]; HCT-116, HCT-116, first column): 0.5 µM

N#Cc1ccc2c(c1)nc(Nc1ccccc1)c1ccccc12
inhibition at 0.5 µM (recombinant human PIM1; cell-free): -65.4% | IC50 ([1]; HCT-116, HCT-116, first column): 10 µM

c1ccc(Nc2nc3cc(-c4nnn[nH]4)ccc3c3ccccc23)cc1
inhibition at 0.5 µM (recombinant human PIM1; cell-free): 15.8% | IC50 ([1]; HCT-116, HCT-116, first column): 10 µM

Clc1nc2ccccc2c2sccc12
inhibition at 0.5 µM (recombinant human PIM1; cell-free): -22.1% | IC50 ([1]; HCT-116, HCT-116, first column): 10 µM

O=C(O)CNc1nc2cc(C(=O)O)ccc2c2sccc12
inhibition at 0.5 µM (recombinant human PIM1; cell-free): -26.1% | IC50 ([1]; HCT-116, HCT-116, first column): 10 µM

O=C(O)c1ccc2c(c1)nc(Nc1nc3ccccc3[nH]1)c1ccsc12
inhibition at 0.5 µM (recombinant human PIM1; cell-free): -40.1% | IC50 ([1]; HCT-116, HCT-116, first column): 10 µM

O=C(O)c1ccc2c(c1)nc(N1CCCC1)c1ccsc12
inhibition at 0.5 µM (recombinant human PIM1; cell-free): -16% | IC50 ([1]; HCT-116, HCT-116, first column): 10 µM

CCC(c1ccccc1)c1nc2cc(C(=O)O)ccc2c2sccc12 (stereo not shown)
inhibition at 0.5 µM (recombinant human PIM1; cell-free): 35.4% | IC50 ([1]; HCT-116, HCT-116, first column): 10 µM

N#Cc1ccc2c(c1)nc(OCCCO)c1ccccc12
inhibition at 0.5 µM (recombinant human PIM1; cell-free): 3.04% | IC50 ([1]; HCT-116, HCT-116, first column): 10 µM

OCCCOc1nc2ccccc2c2ccccc12
inhibition at 0.5 µM (recombinant human PIM1; cell-free): 7.28% | IC50 ([1]; HCT-116, HCT-116, first column): 10 µM

OCCCOc1nc2cc(-c3nnn[nH]3)ccc2c2ccccc12
inhibition at 0.5 µM (recombinant human PIM1; cell-free): 40.8% | IC50 ([1]; HCT-116, HCT-116, first column): 10 µM

c1ccc(Nc2nc3ccccc3c3ccccc23)cc1
inhibition at 0.5 µM (recombinant human PIM1; cell-free): -23.9% | IC50 ([1]; HCT-116, HCT-116, first column): 10 µM

O=C(O)CNc1nc2ccccc2c2ccccc12
inhibition at 0.5 µM (recombinant human PIM1; cell-free): -17.5% | IC50 ([1]; HCT-116, HCT-116, first column): 10 µM

CN(C)CCNc1nc2cc(-c3nnn[nH]3)ccc2c2ccccc12
inhibition at 0.5 µM (recombinant human PIM1; cell-free): 56.9% | IC50 ([1]; HCT-116, HCT-116, first column): 10 µM

COC(=O)c1ccc2c(c1)nc(Nc1ccccc1)c1ccsc12
inhibition at 0.5 µM (recombinant human PIM1; cell-free): 2.59% | IC50 ([1]; HCT-116, HCT-116, first column): 10 µM

CS(=O)(=O)NC(=O)c1ccc2c(c1)nc(Nc1ccccc1)c1ccsc12
inhibition at 0.5 µM (recombinant human PIM1; cell-free): -15.7% | IC50 ([1]; HCT-116, HCT-116, first column): 10 µM

COc1ccc(OC)c(Nc2nc3cc(-c4nnn[nH]4)ccc3c3sccc23)c1
inhibition at 0.5 µM (recombinant human PIM1; cell-free): 21.8%

N#Cc1ccc2c(c1)[nH]c(=O)c1ccncc12
inhibition at 0.5 µM (recombinant human PIM1; cell-free): -16% | IC50 [1, 2]: > 10 µM

c1ccc(Nc2nc3cc(-c4nnn[nH]4)ccc3c3cnccc23)cc1
inhibition at 0.5 µM (recombinant human PIM1; cell-free): 33.1%

CN(C)CCNc1nc2cc(-c3nnn[nH]3)ccc2c2cnccc12
inhibition at 0.5 µM (recombinant human PIM1; cell-free): 38.1%

NC(=O)c1ccc2c(c1)[nH]c(=O)c1ccncc12
inhibition at 0.5 µM (recombinant human PIM1; cell-free): 4.18% | IC50 [1, 2]: > 10 µM

FC(F)(F)Oc1cccc(Nc2nc3cc(-c4nnn[nH]4)ccc3c3sccc23)c1
inhibition at 0.5 µM (recombinant human PIM1; cell-free): 30.7%

COc1ccc(Nc2nc3cc(-c4nnn[nH]4)ccc3c3sccc23)cc1
inhibition at 0.5 µM (recombinant human PIM1; cell-free): 63% | IC50 (recombinant human PIM1; cell-free): > 1.1 µM | IC50 [1, 2]: > 10 µM

CCOc1ccc(Nc2nc3cc(-c4nnn[nH]4)ccc3c3sccc23)cc1
inhibition at 0.5 µM (recombinant human PIM1; cell-free): 46.1% | IC50 [1, 2]: > 10 µM

FC(F)(F)Oc1ccc(Nc2nc3cc(-c4nnn[nH]4)ccc3c3sccc23)cc1
inhibition at 0.5 µM (recombinant human PIM1; cell-free): 32.5% | IC50 [1, 2]: > 10 µM

c1ccc(COc2ccc(Nc3nc4cc(-c5nnn[nH]5)ccc4c4sccc34)cc2)cc1
inhibition at 0.5 µM (recombinant human PIM1; cell-free): 9.03% | IC50 [1, 2]: 15 µM

COc1ccc(Nc2nc3cc(-c4nnn[nH]4)ccc3c3sccc23)cc1OC
inhibition at 0.5 µM (recombinant human PIM1; cell-free): 55.5% | IC50 (recombinant human PIM1; cell-free): 0.809 µM | IC50 [1, 2]: > 10 µM

CC(=O)Nc1cccc(Nc2nc3cc(-c4nnn[nH]4)ccc3c3sccc23)c1
inhibition at 0.5 µM (recombinant human PIM1; cell-free): 27.1%

Cc1cccc(Nc2nc3cc(-c4nnn[nH]4)ccc3c3sccc23)c1
inhibition at 0.5 µM (recombinant human PIM1; cell-free): 58% | IC50 (recombinant human PIM1; cell-free): 0.386 µM

O=C(O)c1cccc(Nc2nc3cc(-c4nnn[nH]4)ccc3c3sccc23)c1
inhibition at 0.5 µM (recombinant human PIM1; cell-free): 58% | IC50 (recombinant human PIM1; cell-free): 0.648 µM

O=C(O)c1ccc2c(c1)nc(Nc1cccc(Cl)c1)c1ccsc12
inhibition at 0.5 µM (recombinant human PIM1; cell-free): 81.1% | IC50 (recombinant human PIM1; cell-free): 0.391 µM

C#Cc1cccc(Nc2nc3cc(C(=O)O)ccc3c3sccc23)c1
inhibition at 0.5 µM (recombinant human PIM1; cell-free): 26%

CCCNC(=O)c1cccc(Nc2nc3cc(-c4nnn[nH]4)ccc3c3sccc23)c1
inhibition at 0.5 µM (recombinant human PIM1; cell-free): 47.7%

Fc1cc(Nc2nc3cc(-c4nnn[nH]4)ccc3c3cnccc23)ccc1Cl
inhibition at 0.5 µM (recombinant human PIM1; cell-free): 9.3%

O=C(O)c1ccc2c(c1)nc(Nc1ccccc1)c1nc(NC3CCNCC3)ncc12
inhibition at 0.5 µM (recombinant human PIM1; cell-free assay): -2.53%

CCN(CC)CCNc1ncc2c(n1)c(Nc1ccccc1)nc1cc(C(=O)O)ccc12
inhibition at 0.5 µM (recombinant human PIM1; cell-free assay): 4.27%

CCOc1ncc2c(n1)c(Nc1cccc(C(F)(F)F)c1)nc1cc(C(=O)O)ccc12
inhibition at 0.5 µM (recombinant human PIM1; cell-free assay): -5%

CC(C)Nc1ncc2c(n1)c(Nc1cccc(Cl)c1)nc1cc(C(=O)O)ccc12
inhibition at 0.5 µM (recombinant human PIM1; cell-free assay): -0.505%

O=C(O)c1ccc2c(c1)nc(Nc1cccc(Cl)c1)c1nc(O)ncc12
inhibition at 0.5 µM (recombinant human PIM1; cell-free assay): 3.53%

Cc1ncc2c(n1)c(Nc1cccc(Cl)c1)nc1cc(C(=O)O)ccc12
inhibition at 0.5 µM (recombinant human PIM1; cell-free assay): 12.9%

C#Cc1cccc(Nc2nc3cc(C(=O)OC)ccc3c3cnc(NOC)nc23)c1
inhibition at 0.5 µM (recombinant human PIM1; cell-free assay): 0.371%

O=C(O)CCNc1ncc2c(n1)c(Nc1cccc(Cl)c1)nc1cc(C(=O)O)ccc12
inhibition at 0.5 µM (recombinant human PIM1; cell-free assay): 24.2%

O=C(O)c1ccc2c(c1)nc(Nc1cccc(F)c1)c1nc(NC3CC3)ncc12
inhibition at 0.5 µM (recombinant human PIM1; cell-free assay): 59.3%
